Molecular target: T1, human Polq polymerase domain (Homo sapiens, UniProt O75417)
T1 sequence (O75417 1792-2590): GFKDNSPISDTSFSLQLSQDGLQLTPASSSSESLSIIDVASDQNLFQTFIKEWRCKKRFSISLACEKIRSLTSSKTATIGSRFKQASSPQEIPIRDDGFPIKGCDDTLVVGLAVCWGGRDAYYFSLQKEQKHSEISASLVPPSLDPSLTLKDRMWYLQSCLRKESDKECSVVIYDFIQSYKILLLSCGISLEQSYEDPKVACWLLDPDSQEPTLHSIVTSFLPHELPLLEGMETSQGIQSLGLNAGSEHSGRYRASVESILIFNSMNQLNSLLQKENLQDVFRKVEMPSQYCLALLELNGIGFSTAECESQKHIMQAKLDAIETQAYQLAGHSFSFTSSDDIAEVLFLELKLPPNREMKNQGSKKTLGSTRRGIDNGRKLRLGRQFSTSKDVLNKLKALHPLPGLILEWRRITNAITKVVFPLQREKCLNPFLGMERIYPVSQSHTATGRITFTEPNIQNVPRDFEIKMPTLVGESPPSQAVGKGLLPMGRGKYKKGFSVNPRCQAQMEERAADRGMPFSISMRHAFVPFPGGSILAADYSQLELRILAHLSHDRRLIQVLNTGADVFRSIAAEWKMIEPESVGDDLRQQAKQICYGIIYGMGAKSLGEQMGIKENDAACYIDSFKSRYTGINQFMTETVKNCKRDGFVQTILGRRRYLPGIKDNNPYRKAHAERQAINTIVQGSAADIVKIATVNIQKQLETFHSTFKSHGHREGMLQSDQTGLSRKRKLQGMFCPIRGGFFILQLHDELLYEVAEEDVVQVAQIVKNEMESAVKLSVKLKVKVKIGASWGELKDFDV
Assay: Cy5 fluorescence assay of Polq polymerase domain inhibition
Type: biochemical
Details: not given
Experimental: The following Cy5 fluorescence assay was used to measure the ability of compounds to inhibit Polq polymerase domain in vitro. The fluorescent based assay was performed as follows: 60 nM of the pre-annealed primer-template containing a 5′ Cy5 fluorophore conjugated template strand (SEQ ID NO:3: 5′-/5Cy5/[…]-3′), a downstream complementary oligo conjugated with a 3′ Blackhole quencher (SEQ ID NO:4: 5′-CTAAGCTCACAGTG/3IAbRQSp/-3′) and a primer strand (SEQ ID NO:5: 5′-CTGTCCTGCATGATG-3′) was mixed with 50 uM 2′-deoxyribonucleoside triphosphates (dNTPs), 0.1 mg/mL Bovine serum albumin (BSA), 0.01% NP-40, 10% glycerol, 1 mM dithiothreitol (DTT), 10 mM MgCl2, 25 mM TrisHCl pH 7.8 in the presence of 2.5% DMSO with or without various concentrations (7-point dilution series) of Polq small molecule inhibitors represented by Formula I at 37 °C in a volume of 40 μL.

Structure (SMILES) | IC50
CN1C(=O)CN(c2cc(C(F)(F)F)cc(C(F)(F)F)c2OC(=O)N(C)c2ccc(F)cc2)C1=O [Example 27, 2-(3-methyl-2,4-dioxoimidazolidin-1-yl)-4,6-bis(trifluoromethyl)phenyl N-(4-fluorophenyl)-N-methylcarbamate] | 24 nM
Cc1cc(N(C)C(=O)Oc2c(N3CCNC3=O)cc(C(F)(F)F)cc2C(F)(F)F)ccc1F [Example 28, 2-(2-oxoimidazolidin-1-yl)-4,6-bis(trifluoromethyl)phenyl N-(4-fluoro-3-methylphenyl)-N-methylcarbamate] | 1200 nM
CN(C(=O)Oc1c(N2CCNC2=O)cc(C(F)(F)F)cc1C(F)(F)F)c1ccc2ccn(C)c2n1 [Example 29, 2-(2-oxoimidazolidin-1-yl)-4,6-bis(trifluoromethyl)phenyl N-methyl-N-{1-methyl-1H-pyrrolo[2,3-b]pyridin-6-yl}carbamate] | 18000 nM
CN(C(=O)Oc1c(N2CCN(CCOS(=O)(=O)NC(=O)COCCOCCOCCN)C2=O)cc(C(F)(F)F)cc1C(F)(F)F)c1ccc(F)cc1 [Example 30, 2-(3-(2-(((4-fluorophenyl)(methyl)carbamoyl)oxy)-3,5-bis(trifluoromethyl)phenyl)-2-oxoimidazolidin-1-yl)ethyl (2-(2-(2-(2-aminoehoxy)ethoxy)ethoxy)acetyl)sulfamate] | 2.2 nM
CN(C(=O)Oc1c(N2CCN(CCOC(F)F)C2=O)cc(C(F)(F)F)cc1C(F)(F)F)c1ccc(F)cc1 [Example 32, 2-(3-(2-(difluoromethoxy)ethyl)-2-oxoimidazolidin-1-yl)-4,6-bis(trifluoromethyl)phenyl N-(4-fluorophenyl)-N-methylcarbamate] | 2.3 nM
CN(C(=O)Oc1c(N2CCN(C3CC(O)C3)C2=O)cc(C(F)(F)F)cc1C(F)(F)F)c1ccc(F)cc1 (stereo not drawn) [Example 34, 2-(3-(3-hydroxycyclobutyl)-2-oxoimidazolidin-1-yl)-4,6-bis(trifluoromethyl)phenyl (4-Fluorophenyl)(methyl)carbamate] | 2 nM
CN(C(=O)Oc1c(N2CCN(C3CCS(=O)(=O)C3)C2=O)cc(C(F)(F)F)cc1C(F)(F)F)c1ccc(F)cc1 (stereo not drawn) [Example 35, 2-(3-(1,1-dioxidotetrahydrothiophen-3-yl)-2-oxoimidazolidin-1-yl)-4,6-bis(trifluoromethyl)phenyl (4-fluorophenyl)(methyl)carbamate] | 2.5 nM
[2H]C([2H])([2H])N(C(=O)Oc1c(N2CCN(CC3(O)CNC3)C2=O)cc(C(F)(F)F)cc1C(F)(F)F)c1ccc(F)cc1 [Example 36, 2-(3-((3-hydroxyazetidin-3-yl)methyl)-2-oxoimidazolidin-1-yl)-4,6-bis(trifluoromethyl)phenyl (4-fluorophenyl)(methyl-d3)carbamate] | 6 nM
[2H]C([2H])([2H])N(C(=O)Oc1c(N2CCN(CC3(O)CNC3)C2=O)cc(C(F)(F)F)cc1C(F)(F)F)c1ccc(F)c(Cl)c1F [Example 37, 2-(3-((3-hydroxyazetidin-3-yl)methyl)-2-oxoimidazolidin-1-yl)-4,6-bis(trifluoromethyl)phenyl (3-chloro-2,4-difluorophenyl)(methyl-d3)carbamate] | 2.7 nM
CN(C(=O)Oc1c(N2CCN(CC3(O)CNC3)C2=O)cc(C(F)(F)F)cc1C(F)(F)F)c1ccc(F)c(Cl)c1F [Example 38, 2,4-bis(trifluoromethyl)-6-(3-((3-hydroxyazetidin-3-yl)methyl)-2-oxoimidazolidin-1-yl)phenyl (3-chloro-2,4-difluorophenyl)(methyl)carbamate] | 7.8 nM
[2H]C([2H])([2H])N(C(=O)Oc1c(N2CCN(CC3(OS(N)(=O)=O)CN(C(=O)OC(C)(C)C)C3)C2=O)cc(C(F)(F)F)cc1C(F)(F)F)c1ccc(F)c(Cl)c1F [Example 39, tert-butyl 3-((3-(2-(((3-chloro-2,4-difluorophenyl)(methyl-d3)carbamoyl)oxy)-3,5-bis(trifluoromethyl)phenyl)-2-oxoimidazolidin-1-yl)methyl)-3-(sulfamoyloxy)azetidine-1-carboxylate] | 3.8 nM
[2H]C([2H])([2H])N(C(=O)Oc1c(N2CCN(CC(O)CN(C)C)C2=O)cc(C(F)(F)F)cc1C(F)(F)F)c1ccc(F)c(Cl)c1F (stereo not drawn) [Example 40, 2-(3-(3-(dimethylamino)-2-hydroxypropyl)-2-oxoimidazolidin-1-yl)-4,6-bis(trifluoromethyl)phenyl (3-chloro-2,4-difluorophenyl)(methyl-d3)carbamate] | 6.3 nM
[2H]C([2H])([2H])N(C(=O)Oc1c(N2C[C@@H](O)[C@@H](O)C2)cc(C(F)(F)F)cc1C(F)(F)F)c1ccc(F)cc1 [Example 41] | 5.5 nM
[2H]C([2H])([2H])N(C(=O)Oc1c(N2CCN(CCn3ccnc3)C2=O)cc(C(F)(F)F)cc1C(F)(F)F)c1ccc(F)cc1 [Example 42, 2-(3-(2-(1H-imidazol-1-yl)ethyl)-2-oxoimidazolidin-1-yl)-4,6-bis(trifluoromethyl)phenyl (4-fluorophenyl)(methyl-d3)carbamate] | 11.7 nM
[2H]C([2H])([2H])N(C(=O)Oc1c(N2CCN(CCn3cnnc3)C2=O)cc(C(F)(F)F)cc1C(F)(F)F)c1ccc(F)cc1 [Example 43, 2-(3-(2-(4H-1,2,4-triazol-4-yl)ethyl)-2-oxoimidazolidin-1-yl)-4,6-bis(trifluoromethyl)phenyl (4-fluorophenyl)(methyl-d3)carbamate] | 5.4 nM
[2H]C([2H])([2H])N(C(=O)Oc1c(N2CCN(CC(O)CNC)C2=O)cc(C(F)(F)F)cc1C(F)(F)F)c1ccc(F)c(Cl)c1F (stereo not drawn) [Example 44, 2-(3-(2-hydroxy-3-(methylamino)propyl)-2-oxoimidazolidin-1-yl)-4,6-bis(trifluoromethyl)phenyl (3-chloro-2,4-difluorophenyl)(methyl-d3)carbamate] | 7 nM
CNCC(O)CN1CCN(c2cc(C(F)(F)F)cc(C(F)(F)F)c2OC(=O)N(C)c2ccc(F)c(Cl)c2F)C1=O (stereo not drawn) [Example 47, 2-(3-(2-hydroxy-3-(methylamino)propyl)-2-oxoimidazolidin-1-yl)-4,6-bis(trifluoromethyl)phenyl (3-chloro-2,4-difluorophenyl)(methyl)carbamate] | 4.8 nM

Same assay, conditions: 5 nM Polq polymerase domain (residues 1792-2590), 60 nM primer-template, 50 uM dNTPs, 37 °C, 18 min; read-out: IC50 (nM) Polq

Structure (SMILES) | IC50
O=C1NCCN1c1cc(C(F)(F)F)cc(C(F)(F)F)c1OC(=O)N(c1ccc(F)cc1)C1CC1 [Example 31, 2,4-bis(trifluoromethyl)-6-(2-oxoimidazolidin-1-yl)phenyl cyclopropyl4-fluorophenylcarbamate] | 31 nM
CN(C(=O)Oc1c(N2CCNC2=O)cc(C(F)(F)F)cc1C(F)(F)F)c1ccccc1CC#N [Example 33, 2,4-bis(trifluoromethyl)-6-(2-oxoimidazolidin-1-yl)phenyl 2-(cyanomethyl)phenylmethylcarbamate] | 590 nM
[2H]C([2H])([2H])N(C(=O)Oc1c(N2CCN(CC(O)CNC)C2=O)cc(C(F)(F)F)cc1C(F)(F)F)c1ccc(F)cc1 (stereo not drawn) [Example 45, 2-(3-(2-hydroxy-3-(methylamino)propyl)-2-oxoimidazolidin-1-yl)-4,6-bis(trifluoromethyl)phenyl (4-fluorophenyl)(methyl-d3)carbamate] | 6.1 nM
[2H]C([2H])([2H])N(C(=O)Oc1c(N2CCN(CC(O)CN(C)C)C2=O)cc(C(F)(F)F)cc1C(F)(F)F)c1ccc(F)cc1 (stereo not drawn) [Example 46, 2-(3-(3-(dimethylamino)-2-hydroxypropyl)-2-oxoimidazolidin-1-yl)-4,6-bis(trifluoromethyl)phenyl (4-fluorophenyl)(methyl-d3)carbamate] | 5.5 nM

Source: US20260356820A1, “Pyrrolidine and Imidazolidine Based DNA Polymerase Theta Inhibitors and Use Thereof” (Thomas Jefferson University, priority 2022, published 2026)
